Measurements reported in patent US6624150B2, “Method of treating gastrointestinal tract disease with purinergic receptor agonists” (Inspire Pharmaceuticals, Inc., priority 1999, dated 2003).

How the values were obtained:
[1] = system: T84 cells; assay: Intracellular calcium mobilization (Fluo-3 AM, FLIPR) in T84 cells; type: cell-based; settings: T84 human colonic epithelial cell line; FIG. 5
Excerpt: In addition, the pharmaceutical utility of P2Y agonist compounds of this invention are indicated by the intracellular calcium mobilization assay for P2Y activity. In this assay, cultured cells are stimulated with the increasing concentrations of P2Y receptor agonists. Intracellular calcium levels are monitored by measuring the changes in fluorescence intensity of a calcium-sensitive dye using the FLIPR (Molecular Devices Corp., Sunnyvale, Calif.) or equivalent instrumentation. A conventional technique is used to detect intracellular calcium mobilization induced by P2Y receptor agonists. The technique is familiar to those well versed in the art. Cells are seeded in 96-well plates and used for calcium mobilization assays. On the day of the assay, the growth medium is aspirated and replaced with a solution of Fluo-3 AM (2.5 μM final concentration) in an assay buffer consisting of (mM): KCI (10.0), NaCl (118), CaCl2(2.5), MgCl2 (1.0), HEPES (20), glucose (10), pH 7.4. Probenecid (Sigma Chemical Co.) is added to the dye load and dye wash medium at a working concentration of 2.5mM to increase dye retention in the cells. After a 60 minute incubation with Fluo-3 AM at 25° C., cells are washed free of dye (Columbus Plate Washer, TECAN U.S., Inc., Research Triangle Park, N.C.) and are stimulated with increasing concentrations of P2Y receptor agonists. Intracellular calcium levels are simultaneously monitored in each well by measuring the changes in fluorescence intensity using the FLIPR (Molecular Devices Corp., Sunnyvale, Calif.). T84 cells, a human colonic epithelial cell line, were subjected to the calcium mobilization assay described above. […] The activation of intracellular calcium mobilization by ATP and UTP in T84 and HT-29 cells indicate the pharmaceutical utility of P2Y receptor agonists in the gastrointestinal tract.

[2] = system: HT-29 cells; assay: Intracellular calcium mobilization (Fluo-3 AM, FLIPR) in HT-29 cells; type: cell-based; settings: human colonic HT-29 cells; FIG. 6
Excerpt: In addition, the pharmaceutical utility of P2Y agonist compounds of this invention are indicated by the intracellular calcium mobilization assay for P2Y activity. In this assay, cultured cells are stimulated with the increasing concentrations of P2Y receptor agonists. Intracellular calcium levels are monitored by measuring the changes in fluorescence intensity of a calcium-sensitive dye using the FLIPR (Molecular Devices Corp., Sunnyvale, Calif.) or equivalent instrumentation. A conventional technique is used to detect intracellular calcium mobilization induced by P2Y receptor agonists. The technique is familiar to those well versed in the art. Cells are seeded in 96-well plates and used for calcium mobilization assays. On the day of the assay, the growth medium is aspirated and replaced with a solution of Fluo-3 AM (2.5 μM final concentration) in an assay buffer consisting of (mM): KCI (10.0), NaCl (118), CaCl2(2.5), MgCl2 (1.0), HEPES (20), glucose (10), pH 7.4. Probenecid (Sigma Chemical Co.) is added to the dye load and dye wash medium at a working concentration of 2.5mM to increase dye retention in the cells. […] Intracellular calcium levels are simultaneously monitored in each well by measuring the changes in fluorescence intensity using the FLIPR (Molecular Devices Corp., Sunnyvale, Calif.). […]

[3] = system: HT-29 cells; settings: Otero et al. Mol Cell Biochem 2000; cited from earlier work
[4] = system: Goblet cells; settings: Goblet cells in vitro; Lethem et al. 1993; cited from earlier work

Row | Structure (SMILES) | calcium mobilization [1] | calcium mobilization (P2Y response) [2] | calcium mobilization [3] | rate and total amount of mucin secretion [4]
1 | CSc1nc(N)c2ncn([C@@H]3O[C@H](COP(=O)(O)OP(=O)(O)O)[C@@H](O)[C@H]3O)c2n1 [2-methylthioADP] | did not simulate calcium mobilization | – | – | –
2 | O=c1ccn([C@@H]2O[C@H](COP(=O)(O)OP(=O)(O)OP(=O)(O)O)[C@@H](O)[C@H]2O)c(=O)[nH]1 [UTP, uridine 5′-triphosphate] | stimulate calcium mobilization | robust P2Y response | stimulated calcium mobilization | increase both the rate and total amount of mucin secretion
3 | Nc1ncnc2c1ncn2[C@@H]1O[C@H](COP(=O)(O)OP(=O)(O)OP(=O)(O)O)[C@@H](O)[C@H]1O [ATP, 5′-adenosine triphosphate] | stimulate calcium mobilization | robust P2Y response | – | –
